In general, viability, T/C refers to the result in the treated group divided by that in the control group, in per cent.

Each structure is given as a SMILES string.
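Note: spheroids exposed to compounds for seven days; 100% = DMSO vehicle control viability.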

One assay concerns 889142-216-R-J1-PDC complex spheroid viability. The assay is described as follows: Anticancer human tumor 889142-216-R-J1-PDC patient-derived bladder carcinoma cell line growth inhibition [POLQ]. The settings on record: second compound 0.0316 µM; first compound 3.16 µM; active compounds read low. Summed up: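 Complex spheroid viability model combining PDC tumour cells with endothelial (HUVEC) and MSC stromal cells. Novobiocin, ART-558 or RP6685 were tested singly and in combination with standard and investigational anticancer drugs. Each was titrated in half-log steps from near clinical Cmax, or from 10 microM where Cmax was unknown.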
For `CNCc1ccc(-c2[nH]c3cc(F)cc4c3c2CCNC4=O)cc1` + COC1C(OC(N)=O)C(O)C(Oc2ccc3c(O)c(NC(=O)c4ccc(O)c(CC=C(C)C)c4)c(=O)oc3c2C)OC1(C)C, the viability, T/C was 97.2%.
Same read-out and setting: next, `Nc1ccn(C2OC(CO)C(O)C2(F)F)c(=O)n1` (configuration not stated) + COC1C(OC(N)=O)C(O)C(Oc2ccc3c(O)c(NC(=O)c4ccc(O)c(CC=C(C)C)c4)c(=O)oc3c2C)OC1(C)C: 43.4%; `O=c1[nH]cc(F)c(=O)[nH]1` + COC1C(OC(N)=O)C(O)C(Oc2ccc3c(O)c(NC(=O)c4ccc(O)c(CC=C(C)C)c4)c(=O)oc3c2C)OC1(C)C: 74%.

The assay is the same for the next values; noted with them: second compound 0.0316 µM; first compound 10 µM; active compounds read low.
Take `CNCc1ccc(-c2[nH]c3cc(F)cc4c3c2CCNC4=O)cc1` + COC1C(OC(N)=O)C(O)C(Oc2ccc3c(O)c(NC(=O)c4ccc(O)c(CC=C(C)C)c4)c(=O)oc3c2C)OC1(C)C: the viability, T/C was 79.5%.
Still for that read-out and setting: next, `Nc1ccn(C2OC(CO)C(O)C2(F)F)c(=O)n1` (configuration not stated) + COC1C(OC(N)=O)C(O)C(Oc2ccc3c(O)c(NC(=O)c4ccc(O)c(CC=C(C)C)c4)c(=O)oc3c2C)OC1(C)C: 27.4%.
Still for that read-out and setting: the value for `O=c1[nH]cc(F)c(=O)[nH]1` + COC1C(OC(N)=O)C(O)C(Oc2ccc3c(O)c(NC(=O)c4ccc(O)c(CC=C(C)C)c4)c(=O)oc3c2C)OC1(C)C was 70.6%.

Staying with this assay, now noted: second compound 0.1 µM; first compound 0.00316 µM; active compounds read low.
Regarding `C=CCn1c(=O)c2cnc(Nc3ccc(N4CCN(C)CC4)cc3)nc2n1-c1cccc(C(C)(C)O)n1` + COC1C(OC(N)=O)C(O)C(Oc2ccc3c(O)c(NC(=O)c4ccc(O)c(CC=C(C)C)c4)c(=O)oc3c2C)OC1(C)C, the viability, T/C is 98.3%.

The assay is the same for the next values; noted with them: second compound 0.1 µM; first compound 0.01 µM; active compounds read low.
For the molecule `C=CCn1c(=O)c2cnc(Nc3ccc(N4CCN(C)CC4)cc3)nc2n1-c1cccc(C(C)(C)O)n1` + COC1C(OC(N)=O)C(O)C(Oc2ccc3c(O)c(NC(=O)c4ccc(O)c(CC=C(C)C)c4)c(=O)oc3c2C)OC1(C)C, the viability, T/C was 111%.

The assay is the same for the next values; noted with them: second compound 0.1 µM; first compound 0.0316 µM; active compounds read low.
Turning to `C=CCn1c(=O)c2cnc(Nc3ccc(N4CCN(C)CC4)cc3)nc2n1-c1cccc(C(C)(C)O)n1` + COC1C(OC(N)=O)C(O)C(Oc2ccc3c(O)c(NC(=O)c4ccc(O)c(CC=C(C)C)c4)c(=O)oc3c2C)OC1(C)C, the viability, T/C is 108%.
Same read-out and setting: next, `CNCc1ccc(-c2[nH]c3cc(F)cc4c3c2CCNC4=O)cc1` + COC1C(OC(N)=O)C(O)C(Oc2ccc3c(O)c(NC(=O)c4ccc(O)c(CC=C(C)C)c4)c(=O)oc3c2C)OC1(C)C: 109%; `Nc1ccn(C2OC(CO)C(O)C2(F)F)c(=O)n1` (configuration not stated) + COC1C(OC(N)=O)C(O)C(Oc2ccc3c(O)c(NC(=O)c4ccc(O)c(CC=C(C)C)c4)c(=O)oc3c2C)OC1(C)C: 78.2%.
Same read-out and setting: the value for `O=c1[nH]cc(F)c(=O)[nH]1` + COC1C(OC(N)=O)C(O)C(Oc2ccc3c(O)c(NC(=O)c4ccc(O)c(CC=C(C)C)c4)c(=O)oc3c2C)OC1(C)C was 121%.

The same assay, now with this note: second compound 0.1 µM; first compound 0.1 µM; active compounds read low.
On to `C=CCn1c(=O)c2cnc(Nc3ccc(N4CCN(C)CC4)cc3)nc2n1-c1cccc(C(C)(C)O)n1` + COC1C(OC(N)=O)C(O)C(Oc2ccc3c(O)c(NC(=O)c4ccc(O)c(CC=C(C)C)c4)c(=O)oc3c2C)OC1(C)C, for which the viability, T/C was 81.2%.
Same read-out and setting: next, `CNCc1ccc(-c2[nH]c3cc(F)cc4c3c2CCNC4=O)cc1` + COC1C(OC(N)=O)C(O)C(Oc2ccc3c(O)c(NC(=O)c4ccc(O)c(CC=C(C)C)c4)c(=O)oc3c2C)OC1(C)C: 107%.
Still for that read-out and setting: next, `Nc1ccn(C2OC(CO)C(O)C2(F)F)c(=O)n1` (configuration not stated) + COC1C(OC(N)=O)C(O)C(Oc2ccc3c(O)c(NC(=O)c4ccc(O)c(CC=C(C)C)c4)c(=O)oc3c2C)OC1(C)C: 60%.
Same read-out and setting: the value for `O=c1[nH]cc(F)c(=O)[nH]1` + COC1C(OC(N)=O)C(O)C(Oc2ccc3c(O)c(NC(=O)c4ccc(O)c(CC=C(C)C)c4)c(=O)oc3c2C)OC1(C)C was 107%.

The assay is the same for the next values; noted with them: second compound 0.1 µM; first compound 0.316 µM; active compounds read low.
For the molecule `C=CCn1c(=O)c2cnc(Nc3ccc(N4CCN(C)CC4)cc3)nc2n1-c1cccc(C(C)(C)O)n1` + COC1C(OC(N)=O)C(O)C(Oc2ccc3c(O)c(NC(=O)c4ccc(O)c(CC=C(C)C)c4)c(=O)oc3c2C)OC1(C)C, the viability, T/C was 60.9%.
In the case of `CNCc1ccc(-c2[nH]c3cc(F)cc4c3c2CCNC4=O)cc1` + COC1C(OC(N)=O)C(O)C(Oc2ccc3c(O)c(NC(=O)c4ccc(O)c(CC=C(C)C)c4)c(=O)oc3c2C)OC1(C)C, the viability, T/C was 96.4%.
Same read-out and setting: the value for `Nc1ccn(C2OC(CO)C(O)C2(F)F)c(=O)n1` (configuration not stated) + COC1C(OC(N)=O)C(O)C(Oc2ccc3c(O)c(NC(=O)c4ccc(O)c(CC=C(C)C)c4)c(=O)oc3c2C)OC1(C)C was 41%; that for `O=c1[nH]cc(F)c(=O)[nH]1` + COC1C(OC(N)=O)C(O)C(Oc2ccc3c(O)c(NC(=O)c4ccc(O)c(CC=C(C)C)c4)c(=O)oc3c2C)OC1(C)C was 75.3%.

The same assay, now with this note: second compound 0.1 µM; first compound 1 µM; active compounds read low.
With `C=CCn1c(=O)c2cnc(Nc3ccc(N4CCN(C)CC4)cc3)nc2n1-c1cccc(C(C)(C)O)n1` + COC1C(OC(N)=O)C(O)C(Oc2ccc3c(O)c(NC(=O)c4ccc(O)c(CC=C(C)C)c4)c(=O)oc3c2C)OC1(C)C, the viability, T/C is 57.5%.
Take `CNCc1ccc(-c2[nH]c3cc(F)cc4c3c2CCNC4=O)cc1` + COC1C(OC(N)=O)C(O)C(Oc2ccc3c(O)c(NC(=O)c4ccc(O)c(CC=C(C)C)c4)c(=O)oc3c2C)OC1(C)C: the viability, T/C was 93.2%.
Same read-out and setting: next, `Nc1ccn(C2OC(CO)C(O)C2(F)F)c(=O)n1` (configuration not stated) + COC1C(OC(N)=O)C(O)C(Oc2ccc3c(O)c(NC(=O)c4ccc(O)c(CC=C(C)C)c4)c(=O)oc3c2C)OC1(C)C: 43.5%.
Still for that read-out and setting: the value for `O=c1[nH]cc(F)c(=O)[nH]1` + COC1C(OC(N)=O)C(O)C(Oc2ccc3c(O)c(NC(=O)c4ccc(O)c(CC=C(C)C)c4)c(=O)oc3c2C)OC1(C)C was 67.2%.

Still in this assay, the particulars now being: second compound 0.1 µM; first compound 3.16 µM; active compounds read low.
Take `CNCc1ccc(-c2[nH]c3cc(F)cc4c3c2CCNC4=O)cc1` + COC1C(OC(N)=O)C(O)C(Oc2ccc3c(O)c(NC(=O)c4ccc(O)c(CC=C(C)C)c4)c(=O)oc3c2C)OC1(C)C: the viability, T/C was 98.1%.
On the same count and under the same terms, the value for `Nc1ccn(C2OC(CO)C(O)C2(F)F)c(=O)n1` (configuration not stated) + COC1C(OC(N)=O)C(O)C(Oc2ccc3c(O)c(NC(=O)c4ccc(O)c(CC=C(C)C)c4)c(=O)oc3c2C)OC1(C)C was 42.4%; that for `O=c1[nH]cc(F)c(=O)[nH]1` + COC1C(OC(N)=O)C(O)C(Oc2ccc3c(O)c(NC(=O)c4ccc(O)c(CC=C(C)C)c4)c(=O)oc3c2C)OC1(C)C was 75.2%.

The same assay, now with this note: second compound 0.1 µM; first compound 10 µM; active compounds read low.
Consider `CNCc1ccc(-c2[nH]c3cc(F)cc4c3c2CCNC4=O)cc1` + COC1C(OC(N)=O)C(O)C(Oc2ccc3c(O)c(NC(=O)c4ccc(O)c(CC=C(C)C)c4)c(=O)oc3c2C)OC1(C)C, for which the viability, T/C is 85.4%.
Still for that read-out and setting: the value for `Nc1ccn(C2OC(CO)C(O)C2(F)F)c(=O)n1` (configuration not stated) + COC1C(OC(N)=O)C(O)C(Oc2ccc3c(O)c(NC(=O)c4ccc(O)c(CC=C(C)C)c4)c(=O)oc3c2C)OC1(C)C was 28.4%; that for `O=c1[nH]cc(F)c(=O)[nH]1` + COC1C(OC(N)=O)C(O)C(Oc2ccc3c(O)c(NC(=O)c4ccc(O)c(CC=C(C)C)c4)c(=O)oc3c2C)OC1(C)C was 77.5%.

The assay is the same for the next values; noted with them: second compound 0.316 µM; first compound 0.00316 µM; active compounds read low.
For the molecule `C=CCn1c(=O)c2cnc(Nc3ccc(N4CCN(C)CC4)cc3)nc2n1-c1cccc(C(C)(C)O)n1` + COC1C(OC(N)=O)C(O)C(Oc2ccc3c(O)c(NC(=O)c4ccc(O)c(CC=C(C)C)c4)c(=O)oc3c2C)OC1(C)C, the viability, T/C was 100%.

The same assay, now with this note: second compound 0.316 µM; first compound 0.01 µM; active compounds read low.
On to `C=CCn1c(=O)c2cnc(Nc3ccc(N4CCN(C)CC4)cc3)nc2n1-c1cccc(C(C)(C)O)n1` + COC1C(OC(N)=O)C(O)C(Oc2ccc3c(O)c(NC(=O)c4ccc(O)c(CC=C(C)C)c4)c(=O)oc3c2C)OC1(C)C, for which the viability, T/C is 125%.

Staying with this assay, now noted: second compound 0.316 µM; first compound 0.0316 µM; active compounds read low.
For `C=CCn1c(=O)c2cnc(Nc3ccc(N4CCN(C)CC4)cc3)nc2n1-c1cccc(C(C)(C)O)n1` + COC1C(OC(N)=O)C(O)C(Oc2ccc3c(O)c(NC(=O)c4ccc(O)c(CC=C(C)C)c4)c(=O)oc3c2C)OC1(C)C, the viability, T/C was 103%.
Same read-out and setting: the value for `CNCc1ccc(-c2[nH]c3cc(F)cc4c3c2CCNC4=O)cc1` + COC1C(OC(N)=O)C(O)C(Oc2ccc3c(O)c(NC(=O)c4ccc(O)c(CC=C(C)C)c4)c(=O)oc3c2C)OC1(C)C was 103%; that for `Nc1ccn(C2OC(CO)C(O)C2(F)F)c(=O)n1` (configuration not stated) + COC1C(OC(N)=O)C(O)C(Oc2ccc3c(O)c(NC(=O)c4ccc(O)c(CC=C(C)C)c4)c(=O)oc3c2C)OC1(C)C was 68.4%; that for `O=c1[nH]cc(F)c(=O)[nH]1` + COC1C(OC(N)=O)C(O)C(Oc2ccc3c(O)c(NC(=O)c4ccc(O)c(CC=C(C)C)c4)c(=O)oc3c2C)OC1(C)C was 112%.

Staying with this assay, now noted: second compound 0.316 µM; first compound 0.1 µM; active compounds read low.
Consider `C=CCn1c(=O)c2cnc(Nc3ccc(N4CCN(C)CC4)cc3)nc2n1-c1cccc(C(C)(C)O)n1` + COC1C(OC(N)=O)C(O)C(Oc2ccc3c(O)c(NC(=O)c4ccc(O)c(CC=C(C)C)c4)c(=O)oc3c2C)OC1(C)C, for which the viability, T/C was 86.4%.
On the same count and under the same terms, next, `CNCc1ccc(-c2[nH]c3cc(F)cc4c3c2CCNC4=O)cc1` + COC1C(OC(N)=O)C(O)C(Oc2ccc3c(O)c(NC(=O)c4ccc(O)c(CC=C(C)C)c4)c(=O)oc3c2C)OC1(C)C: 98.6%; `Nc1ccn(C2OC(CO)C(O)C2(F)F)c(=O)n1` (configuration not stated) + COC1C(OC(N)=O)C(O)C(Oc2ccc3c(O)c(NC(=O)c4ccc(O)c(CC=C(C)C)c4)c(=O)oc3c2C)OC1(C)C: 56.6%.
On the same count and under the same terms, the value for `O=c1[nH]cc(F)c(=O)[nH]1` + COC1C(OC(N)=O)C(O)C(Oc2ccc3c(O)c(NC(=O)c4ccc(O)c(CC=C(C)C)c4)c(=O)oc3c2C)OC1(C)C was 113%.

The same assay, now with this note: second compound 0.316 µM; first compound 0.316 µM; active compounds read low.
As for `C=CCn1c(=O)c2cnc(Nc3ccc(N4CCN(C)CC4)cc3)nc2n1-c1cccc(C(C)(C)O)n1` + COC1C(OC(N)=O)C(O)C(Oc2ccc3c(O)c(NC(=O)c4ccc(O)c(CC=C(C)C)c4)c(=O)oc3c2C)OC1(C)C, the viability, T/C is 63.6%.
Still for that read-out and setting: next, `CNCc1ccc(-c2[nH]c3cc(F)cc4c3c2CCNC4=O)cc1` + COC1C(OC(N)=O)C(O)C(Oc2ccc3c(O)c(NC(=O)c4ccc(O)c(CC=C(C)C)c4)c(=O)oc3c2C)OC1(C)C: 90.6%.
